# Source: patent US20240383901A1, “SUBSTITUTED PYRROLO[2,3-D]PYRIMIDINES, THEIR PREPARATION AND THEIR THERAPEUTIC APPLICATION” (SANOFI, priority 2021, published 2024)
# Key:
# Type in all cases: biochemical
# LRRK2 = LRRK2 (Homo sapiens, UniProt Q5S007); test: LRRK2 WT assay (Assay B, radiometric 33P-ATP filter binding); conditions: Assay B (values marked *)
# Procedure: LRRK2(human) is incubated with 50 mM HEPES pH 8.0, 0.2 mM EDTA, 0.01% Brij-35, 1% (w/v) BSA, 5 mM DTT, 250 Mm […], 10 mM Magnesium acetate and [[…]]-ATP (specific activity and concentration as required).
# The reaction is initiated by the addition of the Mg/ATP mix.
# full-length LRRK2 G2019S = target: T1, full-length LRRK2 G2019S (Homo sapiens, UniProt Q5S007, G2019S); test: LRRK2-G2019S kinase activity assay (Lanthascreen TR-FRET); conditions: 1.1 mM ATP
# T1 construct: DYKDDDDK (FLAG)
# [1] = target: T2, full-length LRRK2 wild type (Homo sapiens, UniProt Q5S007); test: LRRK2 WT assay (Assay A, Lanthascreen TR-FRET, 500 uM ATP); conditions: Assay A (values without *)
# T2 construct: DYDDDDK tagged full-length LRRK2 wild type is used
# T2 sequence (Q5S007 whole entry): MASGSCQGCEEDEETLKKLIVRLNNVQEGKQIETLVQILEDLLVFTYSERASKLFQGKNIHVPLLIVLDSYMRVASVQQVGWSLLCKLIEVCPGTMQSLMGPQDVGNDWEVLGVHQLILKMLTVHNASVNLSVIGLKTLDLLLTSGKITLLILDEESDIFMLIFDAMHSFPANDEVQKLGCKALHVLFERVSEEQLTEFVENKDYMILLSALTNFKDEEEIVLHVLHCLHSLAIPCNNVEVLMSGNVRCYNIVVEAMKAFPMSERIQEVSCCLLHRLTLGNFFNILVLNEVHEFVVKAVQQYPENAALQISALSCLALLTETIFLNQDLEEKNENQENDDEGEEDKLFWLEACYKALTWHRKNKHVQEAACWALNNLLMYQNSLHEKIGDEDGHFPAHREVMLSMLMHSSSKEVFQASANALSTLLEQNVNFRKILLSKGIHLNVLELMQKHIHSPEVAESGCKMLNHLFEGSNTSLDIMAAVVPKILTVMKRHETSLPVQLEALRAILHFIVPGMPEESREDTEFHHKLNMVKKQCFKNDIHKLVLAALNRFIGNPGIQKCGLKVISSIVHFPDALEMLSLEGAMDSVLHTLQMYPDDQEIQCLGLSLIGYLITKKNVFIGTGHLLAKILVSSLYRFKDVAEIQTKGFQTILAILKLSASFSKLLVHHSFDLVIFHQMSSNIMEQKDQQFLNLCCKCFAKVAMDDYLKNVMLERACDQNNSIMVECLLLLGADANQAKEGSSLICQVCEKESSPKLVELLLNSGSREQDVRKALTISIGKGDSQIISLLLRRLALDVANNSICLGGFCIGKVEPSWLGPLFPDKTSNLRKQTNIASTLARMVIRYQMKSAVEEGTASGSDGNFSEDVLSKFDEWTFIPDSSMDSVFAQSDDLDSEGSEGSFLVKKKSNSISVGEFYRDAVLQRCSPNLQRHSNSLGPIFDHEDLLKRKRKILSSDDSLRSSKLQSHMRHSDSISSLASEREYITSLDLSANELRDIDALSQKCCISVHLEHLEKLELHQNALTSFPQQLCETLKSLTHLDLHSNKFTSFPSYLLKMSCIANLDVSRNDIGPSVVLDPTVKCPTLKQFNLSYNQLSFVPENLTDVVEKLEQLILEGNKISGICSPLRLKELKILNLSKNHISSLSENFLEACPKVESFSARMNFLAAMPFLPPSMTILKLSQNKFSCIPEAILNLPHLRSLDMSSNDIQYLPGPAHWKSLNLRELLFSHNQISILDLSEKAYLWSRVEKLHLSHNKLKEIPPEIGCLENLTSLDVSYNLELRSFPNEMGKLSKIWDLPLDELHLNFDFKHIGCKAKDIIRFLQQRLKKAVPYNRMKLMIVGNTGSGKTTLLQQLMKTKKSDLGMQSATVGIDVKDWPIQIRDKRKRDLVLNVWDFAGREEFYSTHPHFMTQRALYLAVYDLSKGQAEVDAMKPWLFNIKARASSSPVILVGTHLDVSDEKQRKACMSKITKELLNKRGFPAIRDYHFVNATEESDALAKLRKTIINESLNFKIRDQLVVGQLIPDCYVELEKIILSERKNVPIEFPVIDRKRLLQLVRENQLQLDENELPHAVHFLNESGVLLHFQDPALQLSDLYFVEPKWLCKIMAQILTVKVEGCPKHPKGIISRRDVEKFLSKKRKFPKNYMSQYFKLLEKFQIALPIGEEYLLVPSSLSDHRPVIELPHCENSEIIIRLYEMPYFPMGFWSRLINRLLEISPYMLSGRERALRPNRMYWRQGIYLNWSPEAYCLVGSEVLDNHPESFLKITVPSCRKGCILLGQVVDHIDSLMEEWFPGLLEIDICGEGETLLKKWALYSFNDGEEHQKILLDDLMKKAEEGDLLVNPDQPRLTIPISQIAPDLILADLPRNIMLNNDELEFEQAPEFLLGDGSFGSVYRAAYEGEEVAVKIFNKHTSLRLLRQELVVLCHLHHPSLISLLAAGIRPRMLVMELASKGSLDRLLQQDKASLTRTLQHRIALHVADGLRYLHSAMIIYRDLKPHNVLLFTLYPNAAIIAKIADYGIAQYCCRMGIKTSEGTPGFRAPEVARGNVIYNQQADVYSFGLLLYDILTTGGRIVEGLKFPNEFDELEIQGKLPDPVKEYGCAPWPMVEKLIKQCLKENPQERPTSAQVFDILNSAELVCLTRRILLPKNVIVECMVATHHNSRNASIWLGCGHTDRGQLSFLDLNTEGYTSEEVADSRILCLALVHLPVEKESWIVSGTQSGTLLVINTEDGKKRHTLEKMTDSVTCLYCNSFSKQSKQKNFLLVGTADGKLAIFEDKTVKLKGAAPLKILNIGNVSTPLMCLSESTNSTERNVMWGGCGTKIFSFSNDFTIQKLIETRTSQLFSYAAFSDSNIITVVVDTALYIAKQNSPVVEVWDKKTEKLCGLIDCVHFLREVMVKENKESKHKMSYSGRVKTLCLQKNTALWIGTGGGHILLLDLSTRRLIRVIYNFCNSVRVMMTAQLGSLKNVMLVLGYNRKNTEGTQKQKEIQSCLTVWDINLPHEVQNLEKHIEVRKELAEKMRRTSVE
# T1 sequence (Q5S007 whole entry G2019S): as the sequence (Q5S007 whole entry) above, with G2019S counted along it
# LRRK2, sequence (Q5S007 whole entry): as the sequence (Q5S007 whole entry) above
IC50 (full-length LRRK2 G2019S) [nM],IC50 [1] [nM],SMILES,IC50 (LRRK2) [nM]
31,35,"COCCn1cc(Nc2ncc3cc(C#N)n([C@@H](C)COC)c3n2)c(OC2CC2)n1 [Example 103, (S)-2-((3-cyclopropoxy-1-(2-methoxyethyl)-1H-pyrazol-4-yl)amino)-7-(1-methoxypropan-2-yl)-7H-pyrrolo[2,3-d]pyrimidine-6-carbonitrile]",
42,44,"COCC(C)n1c(C#N)cc2cnc(Nc3cn(C4CCC(C)(O)CC4)nc3OC(C)C)nc21 [Example 104, cis-2-((1-(4-hydroxy-4-methylcyclohexyl)-3-isopropoxy-1H-pyrazol-4-yl)amino)-7-((S)-1-methoxypropan-2-yl)-7H-pyrrolo[2,3-d]pyrimidine-6-carbonitrile]",
57,62,"COCC(C)n1c(C#N)cc2cnc(Nc3cn(C4CCC(C)(O)CC4)nc3OC(C)C)nc21 [Example 105, trans-2-((1-(4-hydroxy-4-methylcyclohexyl)-3-isopropoxy-1H-pyrazol-4-yl)amino)-7-((S)-1-methoxypropan-2-yl)-7H-pyrrolo[2,3-d]pyrimidine-6-carbonitrile]",
55,70,"COCC(C)n1c(C#N)cc2cnc(Nc3cn(C4CCC(C)(O)CC4)nc3OC3CC3)nc21 [Example 106, cis-2-((3-cyclopropoxy-1-(4-hydroxy-4-methylcyclohexyl)-1H-pyrazol-4-yl)amino)-7-((S)-1-methoxypropan-2-yl)-7H-pyrrolo[2,3-d]pyrimidine-6-carbonitrile]",
81,90,"COCC(C)n1c(C#N)cc2cnc(Nc3cn(C4CCC(C)(O)CC4)nc3OC3CC3)nc21 [Example 107, trans-2-((3-cyclopropoxy-1-(4-hydroxy-4-methylcyclohexyl)-1H-pyrazol-4-yl)amino)-7-((S)-1-methoxypropan-2-yl)-7H-pyrrolo[2,3-d]pyrimidine-6-carbonitrile]",
27,27,"COCCn1cc(Nc2ncc3cc(C#N)n([C@H]4COC[C@@H]4C)c3n2)c(OC2CC2)n1 [Example 113, 2-((3-Cyclopropoxy-1-(2-methoxyethyl)-1 H-pyrazol-4-yl)amino)-7-((3R,4R)-4-methyltetrahydrofuran-3-yl)-7H-pyrrolo[2,3-d]pyrimidine-6-carbonitrile]",
222,153,"COCCn1cc(Nc2ncc3cc(C#N)n(C4CCOCC4)c3n2)c(OC2CC2)n1 [Example 122, 2-((3-Cyclopropoxy-1-(2-methoxyethyl)-1 H-pyrazol-4-yl)amino)-7-(tetrahydro-2H-pyran-4-yl)-7H-pyrrolo[2,3-d]pyrimidine-6-carbonitrile]",
104,81,"COCC(C)n1cc(Nc2ncc3cc(C#N)n([C@H]4COC[C@@H]4C)c3n2)c(OC2COC2)n1 (stereo partly drawn) [Example 128, 2-((1-(1-Methoxypropan-2-yl)-3-(oxetan-3-yloxy)-1 H-pyrazol-4-yl)amino)-7-((3R,4R)-4-methyltetrahydrofuran-3-yl)-7H-pyrrolo[2,3-d]pyrimidine-6-carbonitrile]",
11,11,"COC[C@H](C)n1c(C#N)cc2cnc(Nc3cn(CCO)nc3OC3CCOCC3)nc21 [Example 138, (S)-2-((1-(2-hydroxyethyl)-3-((tetrahydro-2H-pyran-4-yl)oxy)-1 H-pyrazol-4-yl)amino)-7-(1-methoxypropan-2-yl)-7H-pyrrolo[2,3-d]pyrimidine-6-carbonitrile]",
20,22,"COC[C@H](C)n1c(C#N)cc2cnc(Nc3cn(CCO)nc3OC3COC3)nc21 [Example 139, (S)-2-((1-(2-hydroxyethyl)-3-(oxetan-3-yloxy)-1 H-pyrazol-4-yl)amino)-7-(1-methoxypropan-2-yl)-7H-pyrrolo[2,3-d]pyrimidine-6-carbonitrile]",
1,2,"COC[C@H](C)n1c(C#N)cc2cnc(Nc3ccc(C(C)(C)O)cc3OC3CC3)nc21 [Example 154, (S)-2-((2-cyclopropoxy-4-(2-hydroxypropan-2-yl)phenyl)amino)-7-(1-methoxypropan-2-yl)-7H-pyrrolo[2,3-d]pyrimidine-6-carbonitrile]",

# The remaining lines, values behind:
SMILES,IC50 (full-length LRRK2 G2019S) [nM],IC50 [1] [nM],IC50 (LRRK2) [nM]
"CC[C@H]1COC[C@H]1n1c(C#N)cc2cnc(Nc3cn(C)nc3OC(C)C)nc21 (racemic) [Example 72, 7-((cis)-4-ethyltetrahydrofuran-3-yl)-2-((3-isopropoxy-1-methyl-1 H-pyrazol-4-yl)amino)-7H-pyrrolo[2,3-d]pyrimidine-6-carbonitrile]",,,83
"CC[C@@H]1COC[C@H]1n1c(C#N)cc2cnc(Nc3cn(C)nc3OC(C)C)nc21 (racemic) [Example 73, 7-((trans)-4-ethyltetrahydrofuran-3-yl)-2-((3-isopropoxy-1-methyl-1 H-pyrazol-4-yl)amino)-7H-pyrrolo[2,3-d]pyrimidine-6-carbonitrile]",,,11
"CC(C)Oc1nn(C(C)C#N)cc1Nc1ncc2cc(C#N)n([C@@H]3COC[C@@H]3C)c2n1 (single isomer, unassigned) [Example 48, 2-((1-(1-cyanoethyl)-3-isopropoxy-1 H-pyrazol-4-yl)amino)-7-((cis)-4-methyltetrahydrofuran-3-yl)-7H-pyrrolo[2,3-d]pyrimidine-6-carbonitrile]",,,256
"CC(C)Oc1nn(C(C)C#N)cc1Nc1ncc2cc(C#N)n([C@@H]3COC[C@@H]3C)c2n1 (single isomer, unassigned) [Example 49, 2-((1-(1-cyanoethyl)-3-isopropoxy-1 H-pyrazol-4-yl)amino)-7-((cis)-4-methyltetrahydrofuran-3-yl)-7H-pyrrolo[2,3-d]pyrimidine-6-carbonitrile]",,,274
"CC(C)Oc1nn(C(C)C#N)cc1Nc1ncc2cc(C#N)n([C@@H]3COC[C@@H]3C)c2n1 (single isomer, unassigned) [Example 50, 2-((1-(1-cyanoethyl)-3-isopropoxy-1 H-pyrazol-4-yl)amino)-7-((cis)-4-methyltetrahydrofuran-3-yl)-7H-pyrrolo[2,3-d]pyrimidine-6-carbonitrile]",,,7
"CC(C)Oc1nn(C(C)C#N)cc1Nc1ncc2cc(C#N)n([C@@H]3COC[C@@H]3C)c2n1 (single isomer, unassigned) [Example 51, 2-((1-(1-cyanoethyl)-3-isopropoxy-1 H-pyrazol-4-yl)amino)-7-((cis)-4-methyltetrahydrofuran-3-yl)-7H-pyrrolo[2,3-d]pyrimidine-6-carbonitrile]",,,5
"Cn1cc(Nc2ncc3cc(C#N)n(C4CCOC4)c3n2)c(OC2COC2)n1 (single isomer, unassigned) [Example 52, 2-((1-methyl-3-(oxetan-3-yloxy)-1 H-pyrazol-4-yl)amino)-7-(tetrahydrofuran-3-yl)-7H-pyrrolo[2,3-d]pyrimidine-6-carbonitrile]",,,26
"Cn1cc(Nc2ncc3cc(C#N)n(C4CCOC4)c3n2)c(OC2COC2)n1 (single isomer, unassigned) [Example 53, 2-((1-methyl-3-(oxetan-3-yloxy)-1 H-pyrazol-4-yl)amino)-7-(tetrahydrofuran-3-yl)-7H-pyrrolo[2,3-d]pyrimidine-6-carbonitrile]",,,266
"CO[C@H]1COC[C@H]1n1c(C#N)cc2cnc(Nc3cn(C(C)C#N)nc3OC(C)C)nc21 (single isomer, unassigned) [Example 57]",,,27
"Cn1cc(Nc2ncc3cc(C#N)n(C4CCCOC4)c3n2)c(OC2COC2)n1 (single isomer, unassigned) [Example 81, 2-((1-methyl-3-(oxetan-3-yloxy)-1 H-pyrazol-4-yl)amino)-7-(tetrahydro-2H-pyran-3-yl)-7H-pyrrolo[2,3-d]pyrimidine-6-carbonitrile]",,,183
"Cn1cc(Nc2ncc3cc(C#N)n(C4CCCOC4)c3n2)c(OC2COC2)n1 (single isomer, unassigned) [Example 82, 2-((1-methyl-3-(oxetan-3-yloxy)-1 H-pyrazol-4-yl)amino)-7-(tetrahydro-2H-pyran-3-yl)-7H-pyrrolo[2,3-d]pyrimidine-6-carbonitrile]",,,104
"[2H]C([2H])([2H])n1cc(Nc2ncc3cc(C#N)n([C@@H](C)COC)c3n2)c(OC2COC2)n1 [Example 91, 7-[(2S)-1-Methoxypropan-2-yl]-2-[[3-(oxetan-3-yloxy)-1-(methyl-d3)pyrazol-4-yl]amino]pyrrolo[2,3-d]pyrimidine-6-carbonitrile]",7,13,
"COC[C@H](C)n1c(C#N)cc2cnc(Nc3cn(COC)nc3OC3CC3)nc21 [Example 92, 2-[[3-(Cyclopropoxy)-1-(methoxymethyl)pyrazol-4-yl]amino]-7-[(1S)-2-methoxy-1-methyl-ethyl]pyrrolo[2,3-d]pyrimidine-6-carbonitrile]",4,6,
"COC[C@H](C)n1c(C#N)cc2cnc(Nc3cn(CS(C)(=O)=O)nc3OC3COC3)nc21 [Example 93, 7-[(1S)-2-Methoxy-1-methyl-ethyl]-2-[[1-(methylsulfonylmethyl)-3-(oxetan-3-yloxy)pyrazol-4-yl]amino]pyrrolo[2,3-d]pyrimidine-6-carbonitrile]",4,8,
"[2H]C([2H])([2H])n1cc(Nc2ncc3cc(C#N)n([C@@H](C)COC)c3n2)c(OC2CC(O)C2(C)C)n1 (stereo partly drawn) [Example 108, 2-((3-(3-hydroxy-2,2-dimethylcyclobutoxy)-1-(methyl-d3)-1H-pyrazol-4-yl)amino)-7-((S)-1-methoxypropan-2-yl)-7H-pyrrolo[2,3-d]pyrimidine-6-carbonitrile]",10,10,
